Assay results taken from ChEMBL document CHEMBL1201862, “PubChem BioAssay data set” (2004).
Calls of active or inactive are those of the source.

Tests used:
[1] = system: Vero; experiment: cells; type: functional; details: Chlorocebus sabaeus
[2] = microbe, parasite or virus in culture; type: functional; details: Mycobacterium tuberculosis
[3] = Luminescence Cell-Based Dose Confirmation HTS to Identify Activators of 5'UTR Stem-Loop Driven Alpha-Synuclein mRNA Translation in H4 Neuroglioblastoma Cells. [Related pubchem assays: 1829 (Project Summary), 1814 (Primary HTS)]; type: functional
[4] = system: H4; experiment: Luminescence Cell-Based Dose Response HTS to Identify Activators of 5'UTR Stem-Loop Driven Prion Protein mRNA Translation in H4 Neuroglioblastoma Cells. [Related pubchem assays: 1829 (Project Summary), 1814 (Primary HTS)]; type: functional; details: Homo sapiens
[5] = system: Vero; experiment: cells; type: functional, cell-based; details: Chlorocebus sabaeus
[6] = Luminescence Cell-Based Dose Response HTS to Identify Activators of Luciferase Translation or Activity in H4 […] Cells. [Related pubchem assays: 1829 (Project Summary), 1814 (Primary HTS)]; type: functional
[7] = target: Beta Lactamase (Pseudomonas aeruginosa, UniProt Q932Y6); experiment: beta-lactamase reporter inhibitor potency, dose response, artefact control for TLR9-MyD88 binding inhibitor project, BLA reporter cells, FRET fluorescence (AID 588341); type: cell-based;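 further: cell based assay in CHO-K1 cells stably expressing beta-lactamase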
Chain of Beta Lactamase (Q932Y6 whole entry, the tested form may be a part): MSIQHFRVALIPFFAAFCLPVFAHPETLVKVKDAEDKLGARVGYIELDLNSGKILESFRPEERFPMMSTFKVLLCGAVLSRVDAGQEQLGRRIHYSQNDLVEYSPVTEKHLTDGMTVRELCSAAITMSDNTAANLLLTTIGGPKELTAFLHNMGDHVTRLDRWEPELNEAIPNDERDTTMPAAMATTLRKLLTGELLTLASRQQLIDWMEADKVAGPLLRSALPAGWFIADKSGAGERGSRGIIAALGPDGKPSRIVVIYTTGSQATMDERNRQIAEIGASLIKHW

[8] = system: CHO; experiment: cytotoxicity in TLR9-MyD88 CHO cells, dose response, cytotoxicity control for TLR9-MyD88 binding inhibitor project, cell-based, luminescence (AID 588339); type: functional, hamster; details: Cricetulus griseus;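 further: CHO cells stably coexpressing TLR9 and MyD88 fusions from primary screen; compound exposure lasted 48 hours before viability readout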
[9] = ADAM10 protease inhibitors, dose response, selectivity assay for ADAM17 exosite inhibitor project, biochemical, FRET peptide substrate, recombinant human ADAM10 (AID 743259);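 further: ADAM10 enzyme cleaving a FRET peptide substrate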
[10] = target: Disintegrin and metalloproteinase domain-containing protein 17 (Homo sapiens, UniProt P78536); experiment: exosite inhibitors of ADAM17, dose response, biochemical (AID 743260)
Chain of Disintegrin and metalloproteinase domain-containing protein 17 (P78536 whole entry, the tested form may be a part): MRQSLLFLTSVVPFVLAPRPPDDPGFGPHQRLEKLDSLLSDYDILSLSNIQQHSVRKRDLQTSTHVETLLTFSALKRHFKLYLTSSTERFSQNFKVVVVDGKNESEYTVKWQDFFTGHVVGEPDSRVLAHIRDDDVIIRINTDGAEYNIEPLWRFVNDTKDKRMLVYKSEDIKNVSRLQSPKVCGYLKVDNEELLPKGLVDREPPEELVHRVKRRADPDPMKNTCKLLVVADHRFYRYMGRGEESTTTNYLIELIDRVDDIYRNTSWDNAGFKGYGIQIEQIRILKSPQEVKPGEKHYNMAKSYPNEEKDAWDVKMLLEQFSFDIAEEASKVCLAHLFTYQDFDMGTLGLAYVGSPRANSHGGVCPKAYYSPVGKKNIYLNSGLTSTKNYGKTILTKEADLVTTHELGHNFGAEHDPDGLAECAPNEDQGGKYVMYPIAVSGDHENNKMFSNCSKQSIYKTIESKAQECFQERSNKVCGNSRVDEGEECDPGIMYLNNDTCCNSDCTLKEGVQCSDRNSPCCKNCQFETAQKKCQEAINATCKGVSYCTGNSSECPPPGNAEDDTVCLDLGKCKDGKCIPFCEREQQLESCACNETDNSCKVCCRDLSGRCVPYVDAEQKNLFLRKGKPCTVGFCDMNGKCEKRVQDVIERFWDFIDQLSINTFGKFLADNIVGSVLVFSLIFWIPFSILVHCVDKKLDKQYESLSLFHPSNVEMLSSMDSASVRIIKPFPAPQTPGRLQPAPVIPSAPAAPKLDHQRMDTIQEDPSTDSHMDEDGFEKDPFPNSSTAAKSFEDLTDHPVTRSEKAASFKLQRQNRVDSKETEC

[11] = target: Ras and Rab interactor 1/Tyrosine-protein kinase ABL1 (Homo sapiens, UniProt P00519+Q13671); type: functional;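 further: biochemical TR-FRET dose-response test measuring inhibition of binding between Rin1 and Abl proteins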
Chain of Ras and Rab interactor 1/Tyrosine-protein kinase ABL1 (P00519 whole entry): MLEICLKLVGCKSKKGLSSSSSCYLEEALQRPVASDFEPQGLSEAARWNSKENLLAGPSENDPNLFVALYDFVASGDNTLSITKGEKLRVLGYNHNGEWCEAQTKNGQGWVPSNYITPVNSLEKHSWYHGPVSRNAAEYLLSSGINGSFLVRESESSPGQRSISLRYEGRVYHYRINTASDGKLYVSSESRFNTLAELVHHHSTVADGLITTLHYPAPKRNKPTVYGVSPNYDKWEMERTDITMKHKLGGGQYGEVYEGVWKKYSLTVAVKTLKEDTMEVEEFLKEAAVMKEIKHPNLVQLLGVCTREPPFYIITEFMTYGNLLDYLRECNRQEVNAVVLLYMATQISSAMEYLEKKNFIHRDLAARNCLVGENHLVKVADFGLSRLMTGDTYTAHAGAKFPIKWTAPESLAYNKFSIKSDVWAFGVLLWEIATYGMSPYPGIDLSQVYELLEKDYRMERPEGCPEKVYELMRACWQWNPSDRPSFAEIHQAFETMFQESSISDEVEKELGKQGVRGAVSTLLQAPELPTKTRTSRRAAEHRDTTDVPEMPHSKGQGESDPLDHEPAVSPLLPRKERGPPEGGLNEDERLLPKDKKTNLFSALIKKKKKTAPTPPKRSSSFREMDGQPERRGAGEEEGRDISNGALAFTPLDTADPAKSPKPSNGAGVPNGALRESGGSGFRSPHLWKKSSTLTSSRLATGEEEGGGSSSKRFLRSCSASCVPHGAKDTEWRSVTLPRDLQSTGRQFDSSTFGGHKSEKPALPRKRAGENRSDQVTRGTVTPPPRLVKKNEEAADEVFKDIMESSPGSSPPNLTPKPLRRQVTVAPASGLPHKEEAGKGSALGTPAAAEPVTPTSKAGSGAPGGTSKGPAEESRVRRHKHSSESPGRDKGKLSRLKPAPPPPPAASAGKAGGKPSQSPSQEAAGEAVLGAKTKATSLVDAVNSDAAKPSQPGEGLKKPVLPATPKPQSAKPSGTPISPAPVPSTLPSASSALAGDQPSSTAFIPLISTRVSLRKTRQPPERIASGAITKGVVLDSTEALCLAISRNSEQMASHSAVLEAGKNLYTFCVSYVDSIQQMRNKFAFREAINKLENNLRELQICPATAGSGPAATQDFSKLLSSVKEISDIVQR
Chain of Ras and Rab interactor 1/Tyrosine-protein kinase ABL1 (Q13671 whole entry): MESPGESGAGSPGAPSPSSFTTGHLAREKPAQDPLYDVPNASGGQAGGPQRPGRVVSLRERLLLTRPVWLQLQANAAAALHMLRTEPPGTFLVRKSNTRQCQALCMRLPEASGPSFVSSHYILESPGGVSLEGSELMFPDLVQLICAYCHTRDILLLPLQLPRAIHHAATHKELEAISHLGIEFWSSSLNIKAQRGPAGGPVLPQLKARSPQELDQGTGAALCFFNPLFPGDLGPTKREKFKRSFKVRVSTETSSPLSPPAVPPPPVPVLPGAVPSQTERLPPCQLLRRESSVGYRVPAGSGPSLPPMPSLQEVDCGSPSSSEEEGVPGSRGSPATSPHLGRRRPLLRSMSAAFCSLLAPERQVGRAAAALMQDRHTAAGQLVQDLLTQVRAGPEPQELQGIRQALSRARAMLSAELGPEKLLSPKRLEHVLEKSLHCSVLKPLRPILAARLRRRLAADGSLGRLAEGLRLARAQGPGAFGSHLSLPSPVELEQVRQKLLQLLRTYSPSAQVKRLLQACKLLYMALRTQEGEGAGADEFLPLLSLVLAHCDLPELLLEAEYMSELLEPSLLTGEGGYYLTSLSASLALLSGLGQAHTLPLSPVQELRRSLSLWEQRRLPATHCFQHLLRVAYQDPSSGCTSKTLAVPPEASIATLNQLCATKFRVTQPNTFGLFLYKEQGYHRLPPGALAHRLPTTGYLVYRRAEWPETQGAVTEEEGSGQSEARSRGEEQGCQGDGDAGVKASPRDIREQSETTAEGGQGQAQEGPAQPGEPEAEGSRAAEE

[12] = cells; type: functional, cell-based; details: HEK-CNG
[13] = cytotoxicity toward NIH3T3 fibroblasts, dose response, counter-screen, cell-based, ATP luminescence, mouse fibroblasts (AID 2010); type: functional;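 further: cells exposed to compound for about 90 hours before reading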
[14] = target: T1, Galanin receptor type 3 (Homo sapiens, UniProt O60755); experiment: Fluorescence-based cell-based primary high throughput dose response assay to identify antagonists of the Galanin Receptor 3 (GalR3).; type: functional
T1 sequence (O60755 whole entry): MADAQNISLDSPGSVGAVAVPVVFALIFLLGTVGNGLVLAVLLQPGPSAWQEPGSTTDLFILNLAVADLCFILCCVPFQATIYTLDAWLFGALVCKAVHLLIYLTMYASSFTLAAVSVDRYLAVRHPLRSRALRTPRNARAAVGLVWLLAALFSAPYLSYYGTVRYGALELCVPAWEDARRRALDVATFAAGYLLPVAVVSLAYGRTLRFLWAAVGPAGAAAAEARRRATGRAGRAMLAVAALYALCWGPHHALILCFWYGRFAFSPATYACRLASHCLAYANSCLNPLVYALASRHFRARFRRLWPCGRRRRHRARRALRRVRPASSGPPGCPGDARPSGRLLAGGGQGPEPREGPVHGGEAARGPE

[15] = inhibitors of intracellular T. cruzi replication, confirmation, NIH3T3 host cells, beta-gal luminescence (AID 2044); type: functional, cell-based;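 further: intracellular parasites grown in NIH/3T3 mouse fibroblasts as host cells; luminescent beta-galactosidase reporter signal from transgenic T. cruzi replicating inside host cells; inhibitors lower the luminescence signal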
[16] = cytotoxicity in HEK-293T cells, dose response, cytotoxicity control for BCR NF-kB inhibitor project, luminescence, B-cell screen hits (AID 489021); type: functional, cell-based;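 further: HEK-293T cells carrying an NF-kB luciferase reporter; cells exposed to compound for about 14 hours before viability readout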
[17] = target: T2, Cytochrome P450 1A2 (Homo sapiens, UniProt P05177);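 further: PubChem cytochrome P450 panel assay, CYP1A2 panel member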
T2 sequence (P05177 whole entry): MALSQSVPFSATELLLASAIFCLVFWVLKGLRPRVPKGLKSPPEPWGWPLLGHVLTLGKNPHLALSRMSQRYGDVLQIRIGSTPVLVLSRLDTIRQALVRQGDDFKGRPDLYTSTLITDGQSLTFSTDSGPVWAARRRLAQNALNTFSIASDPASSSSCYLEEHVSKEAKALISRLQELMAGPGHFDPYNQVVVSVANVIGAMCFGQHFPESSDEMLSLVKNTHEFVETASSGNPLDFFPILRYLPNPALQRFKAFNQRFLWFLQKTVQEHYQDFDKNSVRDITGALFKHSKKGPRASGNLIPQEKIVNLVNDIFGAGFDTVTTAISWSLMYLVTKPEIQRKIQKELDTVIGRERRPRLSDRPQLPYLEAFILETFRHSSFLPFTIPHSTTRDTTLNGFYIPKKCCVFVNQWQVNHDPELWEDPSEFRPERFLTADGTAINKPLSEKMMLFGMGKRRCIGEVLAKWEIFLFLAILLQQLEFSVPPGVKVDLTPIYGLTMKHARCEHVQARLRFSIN

[18] = target: T3, Corticotropin-releasing factor receptor 2/Corticotropin-releasing factor-binding protein (Homo sapiens, UniProt P24387+Q13324); experiment: activators of CRF receptor 2 with binding protein – uHTS hits, confirmation (AID 602473); type: functional; details: read-out: EC50_Mean
T3 sequence (Q13324 whole entry): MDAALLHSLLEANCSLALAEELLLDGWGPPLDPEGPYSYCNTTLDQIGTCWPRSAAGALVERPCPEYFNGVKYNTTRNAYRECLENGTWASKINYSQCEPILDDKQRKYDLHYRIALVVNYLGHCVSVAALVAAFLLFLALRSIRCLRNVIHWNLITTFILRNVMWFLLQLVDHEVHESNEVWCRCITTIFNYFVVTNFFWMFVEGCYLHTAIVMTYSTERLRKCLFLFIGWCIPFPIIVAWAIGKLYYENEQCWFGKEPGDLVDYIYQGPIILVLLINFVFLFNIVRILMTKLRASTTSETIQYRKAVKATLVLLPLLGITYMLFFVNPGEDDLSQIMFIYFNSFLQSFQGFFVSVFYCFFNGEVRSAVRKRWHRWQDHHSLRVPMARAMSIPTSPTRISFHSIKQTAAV
T3 sequence (P24387 whole entry): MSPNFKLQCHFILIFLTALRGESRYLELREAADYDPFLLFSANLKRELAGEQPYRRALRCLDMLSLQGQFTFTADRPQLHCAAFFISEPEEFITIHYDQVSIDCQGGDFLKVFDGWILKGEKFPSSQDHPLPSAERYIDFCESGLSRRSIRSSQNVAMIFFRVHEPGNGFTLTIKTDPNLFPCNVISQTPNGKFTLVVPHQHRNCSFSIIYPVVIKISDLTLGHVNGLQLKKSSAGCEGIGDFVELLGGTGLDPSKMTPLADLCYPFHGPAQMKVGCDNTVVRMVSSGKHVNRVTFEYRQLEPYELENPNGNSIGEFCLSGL

[19] = target: Beta-galactosidase (Escherichia coli, UniProt Q8VNN2); experiment: beta-galactosidase enzyme inhibitors and activators, dose response, artefact control for CCR6 antagonist project, biochemical, E. coli enzyme, set 3 (AID 504712); type: functional
Chain of Beta-galactosidase (Q8VNN2 whole entry): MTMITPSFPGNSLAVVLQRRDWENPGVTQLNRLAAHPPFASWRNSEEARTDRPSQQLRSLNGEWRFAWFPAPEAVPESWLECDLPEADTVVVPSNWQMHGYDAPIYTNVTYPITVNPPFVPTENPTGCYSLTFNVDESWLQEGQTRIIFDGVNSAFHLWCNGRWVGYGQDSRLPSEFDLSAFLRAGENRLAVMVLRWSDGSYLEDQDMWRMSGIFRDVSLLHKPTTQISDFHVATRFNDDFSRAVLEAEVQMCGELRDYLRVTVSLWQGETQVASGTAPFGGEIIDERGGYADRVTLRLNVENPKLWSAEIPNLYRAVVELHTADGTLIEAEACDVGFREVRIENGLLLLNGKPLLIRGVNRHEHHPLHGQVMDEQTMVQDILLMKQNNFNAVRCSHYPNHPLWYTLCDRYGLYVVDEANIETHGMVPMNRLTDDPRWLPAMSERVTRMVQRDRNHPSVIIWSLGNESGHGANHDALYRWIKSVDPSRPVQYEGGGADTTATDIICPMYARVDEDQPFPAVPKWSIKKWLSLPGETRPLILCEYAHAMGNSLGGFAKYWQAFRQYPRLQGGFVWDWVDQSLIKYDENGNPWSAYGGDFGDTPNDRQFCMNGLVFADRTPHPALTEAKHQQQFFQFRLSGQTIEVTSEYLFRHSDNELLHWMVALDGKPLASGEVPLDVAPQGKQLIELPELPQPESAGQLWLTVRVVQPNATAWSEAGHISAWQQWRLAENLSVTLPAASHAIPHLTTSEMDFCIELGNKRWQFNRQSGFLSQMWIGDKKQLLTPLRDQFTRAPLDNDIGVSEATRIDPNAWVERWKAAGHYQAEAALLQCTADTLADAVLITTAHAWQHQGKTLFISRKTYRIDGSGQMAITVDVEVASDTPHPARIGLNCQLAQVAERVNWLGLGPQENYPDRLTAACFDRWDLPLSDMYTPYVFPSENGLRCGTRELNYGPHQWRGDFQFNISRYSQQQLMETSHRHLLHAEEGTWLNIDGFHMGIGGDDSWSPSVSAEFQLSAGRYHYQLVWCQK

[20] = system: Streptococcus; experiment: Group A Streptococcus viability loss, dose response, counter-screen for streptokinase expression inhibitor project, luminescence, BacTiterGlo (AID 1915); type: functional, organism-based;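 further: potency for reduction of bacterial viability or growth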
[21] = system: Streptococcus sp. 'group A'; experiment: growth inhibition of control SK(-) GAS strain, dose response, counter-screen for streptokinase expression inhibitor project, luminescence, kanamycin, BacTiterGlo, confirmation (AID 1900); type: functional, organism-based
[22] = target: T4, Short transient receptor potential channel 4 (Mus musculus, UniProt Q9QUQ5); experiment: mouse TRPC4 channel activators, dose response, cell-based, HEK293 TRPC4/mu-opioid, Fluo-4 calcium (AID 434937); type: functional
T4 sequence (Q9QUQ5 whole entry): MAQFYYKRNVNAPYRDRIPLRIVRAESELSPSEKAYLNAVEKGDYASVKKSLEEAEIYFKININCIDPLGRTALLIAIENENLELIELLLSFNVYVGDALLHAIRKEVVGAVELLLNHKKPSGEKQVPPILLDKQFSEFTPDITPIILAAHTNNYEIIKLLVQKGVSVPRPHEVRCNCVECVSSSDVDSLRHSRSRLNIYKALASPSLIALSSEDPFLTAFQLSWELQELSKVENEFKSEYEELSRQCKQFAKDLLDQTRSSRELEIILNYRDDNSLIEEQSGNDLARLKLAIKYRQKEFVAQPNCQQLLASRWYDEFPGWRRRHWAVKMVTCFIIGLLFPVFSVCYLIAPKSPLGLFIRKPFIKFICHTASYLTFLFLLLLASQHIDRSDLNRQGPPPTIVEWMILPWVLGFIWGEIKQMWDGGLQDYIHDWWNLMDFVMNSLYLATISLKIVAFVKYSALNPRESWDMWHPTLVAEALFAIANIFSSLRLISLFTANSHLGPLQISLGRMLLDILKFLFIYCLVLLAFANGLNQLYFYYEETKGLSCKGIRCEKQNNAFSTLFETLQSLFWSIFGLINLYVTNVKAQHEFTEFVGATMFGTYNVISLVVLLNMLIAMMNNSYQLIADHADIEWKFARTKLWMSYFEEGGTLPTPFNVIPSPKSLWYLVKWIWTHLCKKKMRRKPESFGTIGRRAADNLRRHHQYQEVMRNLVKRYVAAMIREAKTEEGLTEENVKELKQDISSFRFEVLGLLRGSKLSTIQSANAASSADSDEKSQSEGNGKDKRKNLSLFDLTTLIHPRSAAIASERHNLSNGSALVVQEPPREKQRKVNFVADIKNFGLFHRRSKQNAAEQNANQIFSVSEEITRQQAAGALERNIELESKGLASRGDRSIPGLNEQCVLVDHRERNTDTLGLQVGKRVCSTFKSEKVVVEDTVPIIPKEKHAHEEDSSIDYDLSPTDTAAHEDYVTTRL

## CC(C)C1N=C(c2ccc3c(c2)OCO3)CC(c2ccccc2O)N1 (stereo unspecified)
[1]
  CC50: 14.7 µM (active)
[2]
  CC50: 13.8 µM (active)
[3]
  EC50: 16.6 µM (active)
[4]
  EC50: 4.62 µM (active)
[5]
  IC50: > 25 µM (active)
[6]
  EC50: 15.4 µM (active)

## Cn1c(-c2c(N)n(-c3ccccc3)c3nc4ccccc4nc23)nc2ccccc21
[7]
  IC50: 3.85 µM (active)
[8]
  IC50: > 49.7 µM (inactive)

## CCOc1ccc(-n2c(SCC(=O)Nc3cc(C)c(NC(=O)c4ccccc4)cc3OC)nnc2-c2cccs2)cc1
[9]
  IC50: > 69.5 µM (inactive)
[10]
  IC50: > 69.5 µM (inactive)

## CC(=O)c1cccc(-c2ccnc3c2CC(C(=O)NCc2ccc(N4CCN(C)CC4)cc2)O3)c1 (stereo unspecified)
[11]
  IC50: 29.9 µM (inactive)

## COc1ccc(CC(=O)Oc2ccc(C)cc2Br)cc1OC
[11]
  IC50: 6.87 µM (active)

## CC1(C)CC2CC(C)(CN2S(=O)(=O)c2ccc(C(=O)Nc3ccc(S(=O)(=O)N4CCOCC4)cc3)cc2)C1 (stereo unspecified)
[12]
  EC50: > 29.9 µM (inactive)
[13]
  EC50: > 60 µM (not active)
[14]
  IC50: 0.96 µM (active)
[15]
  EC50: 1.83 µM (active)
[16]
  IC50: > 80 µM (inactive)

## c1nnc(NCNc2nncs2)s1
[1]
  CC50: > 25 µM (active)
[5]
  IC50: > 25 µM (active)
[17]
  AC50: 2 µM (inconclusive)
[18]
  EC50: > 53 µM (inactive)

## OC(c1ccc(F)c(F)c1)c1nc(-c2cccc(C(F)(F)F)c2)cs1 (stereo unspecified)
[9]
  IC50: 12.1 µM (inactive)
[10]
  IC50: 50.5 µM (inactive)

## O=C(OCc1cnc(Cl)s1)c1cccc(Cl)c1Cl
[9]
  IC50: > 69.6 µM (inactive)
[10]
  IC50: > 69.6 µM (inactive)

## Cc1ccc(C(=O)NNC(=S)NC(=O)c2ccccc2)cc1
[19]
  IC50: > 66.6 µM (inactive)
[1]
  CC50: 24.8 µM (active)
[20]
  EC50: 4.44 µM (active)
[21]
  EC50: 1.47 µM (active)
[5]
  IC50: 12 µM (active)
[22]
  EC50: 2.66 µM (active)
